Laboratory results: paper PMC5903241 (British Journal of Clinical Pharmacology, 2018)
“And” between values parts separate entries of the source, which are not always exact repeats. Identical values can stand only once. Like-named read-outs stand apart in the source and are kept apart here.

What was measured:
[1] = format: in vivo, healthy subjects; settings: mean (SD)
Safety assessments = format: in vivo, healthy subjects; settings: for Pulse rate / Supine diastolic blood pressure / Supine systolic blood pressure: mean ± SD; for eGFR: mean ± standard deviation, baseline 107.8 ± 10.9
[2] = furosemide 40 mg alone, geometric least squares mean
[3] = format: in vivo, healthy subjects; settings: for Tmax / AUC / Cmax: human, plasma, oral; for AUC: AUCtau, steady state; for AUC / Cmax: mean (SD); for Cmax: Cmax,ss; for Estimated geometric mean ratio of AUCtau / Estimated geometric mean ratio of Cmax,ss: sacubitril/valsartan + furosemide vs sacubitril/valsartan alone
[4] = urine, 4 to 8 h after furosemide
[5] = 200 mg, sacubitril/valsartan 200 mg twice daily alone
[6] = sacubitril/valsartan 200 mg twice daily + furosemide 40 mg single dose

| Tmax ([3]; 200 mg) [h] | AUC [3, 5] [ng·h/mL] | Cmax [3, 5] [ng/mL] | AUC [3, 6] [ng·h/mL] | Cmax [3, 6] [ng/mL] | Estimated geometric mean ratio of AUCtau [3] | Estimated geometric mean ratio of Cmax,ss [3] | Compound | Pulse rate (Safety assessments) [bpm] | Supine diastolic blood pressure (Safety assessments) [mmHg] | Supine systolic blood pressure (Safety assessments) [mmHg] | eGFR (Safety assessments) [ml min^–1 1.73 m^–2] | also measured |
| --- | --- | --- | --- | --- | --- | --- | --- | --- | --- | --- | --- | --- |
| 0.52 | 2330 | 1740 | 2330 | 1810 | 1.01 | 1.04 | CCOC(=O)[C@H](C)C[C@@H](Cc1ccc(-c2ccccc2)cc1)NC(=O)CCC(=O)O [Sacubitril, sacubitril] |  |  |  |  |  |
| 2 | 79600 | 11800 | 86100 | 12700 | 1.08 | 1.08 | C[C@H](C[C@@H](Cc1ccc(-c2ccccc2)cc1)NC(=O)CCC(=O)O)C(=O)O [Sacubitrilat, sacubitrilat] |  |  |  |  |  |
| 1.75 | 18900 | 3860 | 21000 | 4250 | 1.16 | 1.16 | CCCCC(=O)N(Cc1ccc(-c2ccccc2-c2nnn[nH]2)cc1)[C@H](C(=O)O)C(C)C [Valsartan, valsartan] |  |  |  |  | coefficient of variation of pharmacokinetic parameters ([3]; valsartan pharmacokinetic parameters): 35.8%; increase of AUCtau when coadministered with furosemide ([3]; vs sacubitril/valsartan alone): 16%; increase of Cmax,ss when coadministered with furosemide ([3]; vs sacubitril/valsartan alone): 16% |

More lines, now with the values behind:

| Compound | Tmax ([3]; 200 mg) [h] | AUC [3, 5] [ng·h/mL] | Cmax [3, 5] [ng/mL] | AUC [3, 6] [ng·h/mL] | Cmax [3, 6] [ng/mL] | Estimated geometric mean ratio of AUCtau [3] | Estimated geometric mean ratio of Cmax,ss [3] | Pulse rate (Safety assessments) [bpm] | Supine diastolic blood pressure (Safety assessments) [mmHg] | Supine systolic blood pressure (Safety assessments) [mmHg] | eGFR (Safety assessments) [ml min^–1 1.73 m^–2] | also measured |
| --- | --- | --- | --- | --- | --- | --- | --- | --- | --- | --- | --- | --- |
| NS(=O)(=O)c1cc(C(=O)O)c(NCc2ccco2)cc1Cl [Furosemide, furosemide] |  |  |  |  |  |  |  | 71.0 ± 9.7 | 71.6 ± 6.1 | 115.5 ± 12.2 | 103.1 ± 12.5 | Urine volume, Volume0–4 ([1]; 0 to 4 h after furosemide): 1640.00 (413.49) ml; Urine volume, Volume0–24 ([1]; 0 to 24 h after furosemide): 3816.07 (533.04) ml; Urine volume, Volume4–8 ([1]; 4 to 8 h after furosemide): 585.36 (204.30) ml; Potassium Ae0–4 ([1]; urine, 0 to 4 h after furosemide): 22.87 (5.60) mmol; Sodium Ae0–4 ([1]; urine, 0 to 4 h after furosemide, listed as Furosemide alone): 128.87 mmol and 128.87 (42.36) mmol; Potassium Ae0–24 ([1]; urine, 0 to 24 h after furosemide): 60.35 (8.08) mmol; Sodium Ae0–24 ([1]; urine, 0 to 24 h after furosemide, listed as Furosemide alone): 198.68 mmol and 198.68 (34.95) mmol; Potassium Ae4–8 [1, 4]: 10.04 (3.74) mmol; Sodium Ae4–8 [1, 4]: 21.57 (12.89) mmol; subjects reporting AE back pain (Safety assessments; one subject of 28): 3.6%; subjects reporting AEs (Safety assessments; when treated with furosemide, 28 subjects): Two subjects reported AEs; Ae0–4, amount excreted in urine ([2]; 0 to 4 h): 8.03 mg; Ae0–24, amount excreted in urine ([2]; 0 to 24 h): 12.54 mg |
| sacubitril/valsartan |  |  |  |  |  |  |  | 71.6 ± 9.9 | 67.5 ± 7.9 | 111.1 ± 10.7 | 107.7 ± 12.5 | subjects reporting AEs diarrhoea, headache and presyncope (each) (Safety assessments; each reported by one subject of 28, sacubitril/valsartan alone): 3.6% |
